Assay [1] has as its system RRE. Put plainly: Displacement assay using Rev peptide after formation of complex with RRE. Conditions: for fluorescence intensity in displacement assay / recovery rate of the fluorescence intensity: compound and RRE each 2 μM. The assay is classed as binding, HIV-1. Here is the method:
In this Example, a binding affinity between a test substance and RRE was evaluated, with use of the compounds, X2S, X2S(3), X2S(4), X2S(5), X2S(2-Me), and 3,6-X2S(2). As the test substance, Rev protein used in Example 5 was used.
Firstly, in the same manner as in Example 3, the above compounds and RREs were respectively dissolved in cacodylate buffer solutions (sodium cacodylate: 10 mM pH 7.0, NaCl: 100 mM) each at 2 μM, so that an X2S-RRE solution, an X2S(3)-RRE solution, an X2S(4)-RRE solution, an X2S(5)-RRE solution, an X2S(2-Me)-RRE solution, and a 3,6-X2S(2)-RRE solution were prepared.
To each of these solutions, Rev protein was added in stages at 0 μM, 0.4 μM, 0.8 μM, 1.2 μM, 1.6 μM, 2.0 μM, 2.4 μM, 2.8 μM, 3.2 μM, 3.6 μM, and 4.0 μM. Further, a fluorescence intensity was measured at each concentration. The fluorescence intensity was measured in the same manner as that described in Example 14.
Each of FIGS. 43 to 48 is a view illustrating a result of the measurement of a binding affinity between Rev protein and RRE. […] In each of FIGS. 43 to 48, the horizontal axis represents the fluorescence wavelength, whereas the vertical axis represents the fluorescence intensity. […] Further, along the direction of the arrow extending from the curved line at the bottom, the curved lines, showing the respective results, are arranged in order of increasing amount of the test substance which was added.
FIG. 49 is a view illustrating a relationship between an amount of Rev added and a fluorescence intensity, in connection with X2S, X2S(3), X2S(4), X2S(5), X2S(2-Me), and 3,6-X2S(2). Further, FIG. 49 is also a view plotting, based on the results illustrated in FIGS. 43 to 48, the fluorescence intensities detected at the fluorescence wavelength at which the respective fluorescence peaks were observed. FIG. 50 is a graph illustrating a relationship between an amount of Rev added and a recovery rate of the fluorescence intensity. In FIG. 49, the vertical axis represents the fluorescence intensity. In FIG. 50, the vertical axis represents the recovery rate of the fluorescence intensity. In each of FIGS. 49 and 50, the horizontal axis represents the amount of Rev added. That is, each of FIGS. 49 and 50 reflects amounts of the above compounds liberated from RREs due to the addition of Rev.
The recovery rate of the fluorescence intensity was obtained by dividing (i) a maximum value of the fluorescence intensity detected at each Rev concentration ranging from 0 μM to 4.0 μM in each of FIGS. 43 to 48 by (ii) a maximum value of the fluorescence intensity of the curved line at the top in each of FIGS. 43 to 48.
In this Example, 1-Pyrenemethanamide, hydrochloride was used to measure a binding affinity between a test substance and RRE. As the test substance, Rev protein used in Example 5 was used.
Firstly, in the same manner as in Example 3, 1-Pyrenemethanamide, hydrochloride and RRE were dissolved in a cacodylate buffer solution (sodium cacodylate: 10 mM, pH 7.0; NaCl: 100 mM) each at 2 μM, so that a 1-Pyrenemethanamide, hydrochloride-RRE solution was prepared.
To the solution, Rev protein was added in steps at 0 μM, 0.4 μM, 0.8 μM, 1.2 μM, 1.6 μM, 2.0 μM, 2.4 μM, 2.8 μM, 3.2 μM, 3.6 μM, and 4.0 μM. Further, the solution at each concentration was irradiated with light having an excitation wavelength of 340 nm, and a fluorescence intensity was measured. A device used for measuring a fluorescence intensity and a variation in a slit width were the same as those in Example 13.
FIG. 55 is a view illustrating a result of the measurement of a binding affinity between Rev protein and RRE. The horizontal axis represents the fluorescence wavelength, whereas the vertical axis represents the fluorescence intensity. […] Further, along a bottom-to-top direction, the curved lines, showing the respective results, are arranged in order of increasing amount of the test substance which was added. […]

Assay [2] concerns RNAs of FIG. 2 (SEQ ID NOs: 1 through 3), with or without bulge structure. Put plainly: Evaluation of binding between xanthone fluorescent molecule and RNA (fluorescence before and after mixing RNA). Conditions: 10 μM compound. Here is the method:
Next, binding between X2S and RNAs was evaluated. The RNAs used in the present example had the structure illustrated in FIG. 2. FIG. 2 is a diagram schematically illustrating the structure of the RNAs used in the present example. The RNAs used in the present example had sequences shown in SEQ ID NOs: 1 through 3.
The symbol N in FIG. 2 represents either a base out of A, U, C, and G, or no base. Thus, in a case where a particular RNA as in FIG. 2 has N representing a base out of A, U, C, and G, the RNA is an RNA formed by hybridization of an RNA having the base sequence shown in SEQ ID NO: 1 with a single strand RNA having the base sequence shown in SEQ ID NO: 2. On the other hand, in a case where a particular RNA as in FIG. 2 has N representing no base, the RNA is an RNA formed by hybridization of an RNA having the base sequence shown in SEQ ID NO: 1 with an RNA having the base sequence shown in SEQ ID NO: 3.
This also applies to other bases. The RNAs used in the present example were purchased from Hokkaido System Science Co., Ltd.
Firstly, X2S was mixed in a cacodylate buffer solution (sodium cacodylate: 10 mM, pH 7.0; NaCl: 100 mM) at 10 μM, so that an X2S solution was obtained. The X2S solution was irradiated with light having an absorption maximum of 371±3 nm, and a fluorescence intensity was then measured. The fluorescence intensity was measured with use of a device (product number: RF-5300PC) available from Shimadzu Corporation. For each type of the RNAs, the fluorescence intensity was measured after the RNA was mixed in the X2S solution at 30 μM.
FIGS. 3 and 4 compare the fluorescence intensities measured before and after the RNA was mixed. […] The horizontal axis represents the fluorescence wavelength, whereas the vertical axis represents the fluorescence intensity. FIG. 4 is an enlarged graph corresponding to the fluorescence intensity of 5 A.U. in FIG. 3 and its vicinity.
Binding between X1S and RNAs was evaluated by a method identical to the method described in Example 2, except that X1S was used instead of X2S. […]

For assay [3], the system named is RRE. Put plainly: Displacement assay using X2S. It is filed as binding, HIV-1. Conditions: for binding affinity with respect to RRE / change of fluorescence intensity on addition of test substance: X2S and RRE each 2 μM, test substance 0-4.0 μM; for change of fluorescence intensity on addition of test substance: 453 nm. The text has this: In this Example, X2S was used to measure a binding affinity between a test substance and RRE. As the test substance, Rev protein (supplied by Professor Takashi MORII, Graduates School of Energy Science, Kyoto University), aminoglycoside antibiotic neomycin (available from Sigma-Aldrich, product number; N-1876) (hereinafter, simply referred to as “neomycin”), and thrombin (available from Bachem, product number; AG H-8550) were used. […] The structure of Rev protein is shown in FIG. 9, and the amino acid sequence of Rev protein is shown in SEQ ID NO: 5. FIG. 9 is a view schematically illustrating the structure of Rev protein. Further, the structure of thrombin is shown in FIG. 10, and the amino acid sequence of thrombin is shown in SEQ ID NO: 6. FIG. 10 is a view schematically illustrating the structure of thrombin.
Firstly, in the same manner as in Example 3, X2S and RRE were dissolved in a cacodylate buffer solution (sodium cacodylate: 10 mM, pH 7.0; NaCl: 100 mM) each at 2 μM. Thus, an X2S-RRE solution was prepared.
To the X2S-RRE solution, Rev protein was added in steps at 0 μM, 0.4 μM, 0.8 μM, 1.2 μM, 1.6 μM, 2.0 μM, 2.4 μM, 2.8 μM, 3.2 μM, 3.6 μM, and 4.0 μM. Further, a fluorescence intensity was measured at each concentration. Similarly, to the X2S-RRE solution, neomycin was added in steps at 0 μM, 0.4 μM, 0.8 μM, 1.2 μM, 1.6 μM, 2.0 μM, 2.4 μM, 2.8 μM, 3.2 μM, 3.6 μM, and 4.0 μM. Further, a fluorescence intensity was measured at each concentration. Similarly, to the X2S-RRE solution, thrombin was added in steps at 0 μM, 0.4 μM, 0.8 μM, 1.2 μM, 1.6 μM, 2.0 μM, 2.4 μM, 2.8 μM, 3.2 μM, 3.6 μM, and 4.0 μM. Further, a fluorescence intensity was measured at each concentration. The fluorescence intensities were measured in the same manner as that described in Example 2.
FIG. 11 is a view illustrating a result of the measurement of a binding affinity between Rev protein and RRE; FIG. 12 is a view illustrating a result of the measurement of a binding affinity between neomycin and RRE; and FIG. 13 is a view illustrating a result of the measurement of a binding affinity between thrombin and RRE. In each of FIGS. 11 to 13, the horizontal axis represents the fluorescence wavelength, whereas the vertical axis represents the fluorescence intensity. […] Furthermore, along the direction of the arrow extending from the curved line at the bottom, the curved lines are arranged in order of increasing amount of the test substance which was added.
FIG. 14 is a view plotting the fluorescence intensities at a fluorescence wavelength of 453 nm shown in the results illustrated in FIGS. 11 to 13. The horizontal axis represents the concentration of each test substance, whereas the vertical axis represents the fluorescence intensity. In FIG. 14, the circle marks represent the result obtained in the case involving use of Rev protein, the square marks represent the result obtained in the case involving use of neomycin, and the triangle marks represent the result obtained in the case involving use of thrombin.
A displacement assay using X2S was performed in the same manner as that described in Example 5, except that, in this Example, fluorescence was measured also when Rev protein was added at concentrations of 4.4 μM and 4.8 μM.
FIG. 16 is a view illustrating the result of the displacement assay using X2S. The horizontal axis represents the fluorescence wavelength, whereas the vertical axis represents the fluorescence intensity.

These results are taken from US8741659B2, “Composition for measuring the binding affinity between nucleic acid and test substance, and use thereof” (Osaka University, priority 2007, dated 2014).

On to `NCCOc1ccc2c(=O)c3ccc(OCCN)cc3oc2c1` [3,6-X2S(2), 3,6-bis(2-aminoethoxy)xanthen-9-one], for which, in assay [1] (Rev protein 0-4.0 μM), the “fluorescence intensity in displacement assay” value is reported as “low” and the “recovery rate of the fluorescence intensity” value is recorded as “almost equal to that of X2S”.
With `NCCOc1ccc2oc3ccccc3c(=O)c2c1` [X1S, 2-(2-aminoethoxy)xanthen-9-one], in assay [2] (30 μM RNA (A, U, C, G bulge or no bulge), cacodylate buffer pH 7.0, NaCl 100 mM), the “binding to RNAs” value is reported as “binds to RNAs regardless of whether the bulge structure is present”. For the same compound, the “detected decrease in the fluorescence intensity on mixing RNA” value in assay [2] (30 μM RNA, compared with X2S) is reported as “small as compared to the case of X2S”.
In the case of `CC(N)COc1ccc2oc3ccc(OCC(C)N)cc3c(=O)c2c1` (stereo not shown) [X2S(2-Me), 2,7-bis(2-methyl-2-aminoethoxy)xanthen-9-one], in assay [1] (Rev protein 0-4.0 μM), the “fluorescence intensity in displacement assay” value is listed as “lower than that of X2S” and the “recovery rate of the fluorescence intensity” value is “highest”.
Regarding “Rev protein: Rev protein, SEQ ID NO: 5, known to bind to RRE; test substance (TRQARRNRRRRWRERQRAAAAR; Human immunodeficiency virus type 1)”, in assay [3], the “binding affinity with respect to RRE” value is listed as “significantly high binding affinity” and the “change of fluorescence intensity on addition of test substance” value (“change … of test substance” for short) is reported as “increased the fluorescence intensity”. For the same compound, the fluorescence intensity recovered result in assay [3] (X2S-RRE solution, FIG. 14, 453 nm) is recorded as “approximately 80%”. Also, in assay [1] (1-Pyrenemethanamide, hydrochloride and RRE each 2 μM, excitation 340 nm), the “change of fluorescence intensity on addition of Rev protein” value was “increased the fluorescence intensity”. Moreover, in assay [1] (measured with X2S, X2S(3), X2S(4), X2S(5), X2S(2-Me), 3,6-X2S(2), each 2 μM with RRE), the “binding affinity of Rev protein with respect to RRE” value is on record as “significantly high binding affinity”. The “change of fluorescence intensity on addition of Rev protein” value in assay [1] (xanthone compounds and RRE each 2 μM, Rev protein 0-4.0 μM) was “increased the fluorescence intensity”.
As to neomycin [reference compound], in assay [3], the “binding affinity with respect to RRE” value is listed as “lower binding affinity with respect to RRE compared with Rev protein” and the “change … of test substance” value was “slightly increased the fluorescence intensity”.
Turning to thrombin, in assay [3], the “binding affinity with respect to RRE” value is on record as “does not bind to RRE” and the “change … of test substance” value is “hardly increased the fluorescence intensity”.
